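Values below derive from 48-hour exposures of cells grown in 96-well plates, with endpoints linearly interpolated between the two concentrations bracketing the appropriate inhibition level. Here, GI50 denotes the concentration required for 50% inhibition of growth. The concentration for full growth arrest is given as TGI.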 Where a SMILES comes first, the peptide text is derived from it. [ ]: non-standard residue; d: D form. The star is where a group is joined. ξ: configuration not given here. X37 = O=C(OCc1ccccc1)[C@@H]1CCC[C@H]1N*; Fmoc = O=C(OCC1c2ccccc2-c2ccccc21)*; ξW = NC(Cc1c[nH]c2ccccc12)C(=O)O; ξF = NC(Cc1ccccc1)C(=O)O; Boc = CC(C)(C)OC(=O)*; ξK = NCCCCC(N)C(=O)O; ξT = CC(O)C(N)C(=O)O; tBu = CC(C)(C)*
Tests used:
Experiment in all cases: DTP human tumour cell line panel, 48 h
M14 melanoma = system: M14 melanoma
OVCAR-5 ovarian = system: OVCAR-5 ovarian
SNB-19 CNS = system: SNB-19 CNS
LOX IMVI melanoma = system: LOX IMVI melanoma
COLO 205 colon = system: COLO 205 colon
SK-MEL-2 melanoma = system: SK-MEL-2 melanoma
A549 NSCLC = system: A549 NSCLC
KM12 colon = system: KM12 colon
SK-OV-3 ovarian = system: SK-OV-3 ovarian
SNB-75 CNS = system: SNB-75 CNS

Row | SMILES | TGI (M14 melanoma) | TGI (OVCAR-5 ovarian) | TGI (SNB-19 CNS) | TGI (LOX IMVI melanoma) | TGI (COLO 205 colon) | TGI (SK-MEL-2 melanoma) | TGI (A549 NSCLC) | TGI (KM12 colon) | TGI (SK-OV-3 ovarian) | TGI (SNB-75 CNS) | GI50 (OVCAR-5 ovarian) | GI50 (SNB-19 CNS) | GI50 (COLO 205 colon) | GI50 (SK-MEL-2 melanoma) | GI50 (A549 NSCLC) | GI50 (SK-OV-3 ovarian) | GI50 (SNB-75 CNS) | GI50 (KM12 colon) | GI50 (M14 melanoma)
1 | CC1(C(O)c2ccccc2)CN(C(C)(C)C)C(=O)/C1=C\Sc1ccccc1 (centres undefined) | > 100 µM | > 100 µM | > 100 µM | 32.1 µM | 50.7 µM | > 100 µM | > 100 µM | > 100 µM | > 100 µM | – | – | – | – | – | – | – | – | – | –
2 | CC(OC(C)(C)C)C(NC(=O)C(CCCCNC(=O)OC(C)(C)C)NC(=O)C(Cc1c[nH]c2ccccc12)NC(=O)C(Cc1ccccc1)NC(=O)OCC1c2ccccc2-c2ccccc21)C(=O)NC(Cc1ccccc1)C(=O)N[C@@H]1CCC[C@H]1C(=O)OCc1ccccc1 (some centres undefined) (Fmoc-[ξF][ξW][ξK](Boc)[ξT](tBu)[ξF]-X37) | > 100 µM | > 100 µM | – | > 100 µM | > 100 µM | > 100 µM | > 100 µM | > 100 µM | > 100 µM | > 100 µM | – | – | – | – | – | – | – | – | –
3 | Fc1ccc(C(=NCc2ccccc2)N2CCOCC2)cc1 | > 100 µM | > 100 µM | > 100 µM | > 100 µM | > 100 µM | > 100 µM | – | > 100 µM | > 100 µM | > 100 µM | – | – | – | – | – | – | – | – | –
4 | O=c1[nH]c2ccc(CC(=S)N3CCN(c4ccccc4)CC3)cc2s1 | > 100 µM | 84.5 µM | > 100 µM | > 100 µM | > 100 µM | > 100 µM | – | > 100 µM | 44.9 µM | – | – | – | – | – | – | – | – | – | –
5 | N=C(/C=C/c1ccc(-c2cn3cc(/C=C/C(=N)N4CCOCC4)ccc3n2)cc1)N1CCOCC1 | > 100 µM | > 100 µM | > 100 µM | – | > 100 µM | > 100 µM | > 100 µM | > 100 µM | > 100 µM | > 100 µM | – | – | – | – | – | – | – | – | –
6 | CC(=O)O[C@H]1C(=O)[C@]2(C)[C@@H](OC(=O)OCC(O)CO)C[C@H]3OC[C@@]3(OC(C)=O)[C@H]2[C@H](OC(=O)c2ccccc2)[C@]2(O)C[C@H](OC(=O)[C@H](O)[C@@H](NC(=O)c3ccccc3)c3ccccc3)C(C)=C1C2(C)C (some centres undefined) | – | 20.9 µM | > 100 µM | 25 µM | 0.683 µM | – | > 100 µM | – | > 100 µM | < 0.01 µM | – | – | – | – | – | – | – | – | –
7 | CCC1OC2C(CC=C(C)C)=C3OC(C)(O)C(C)(CC)C(O)C3=C3OC(=O)C=C1C32 (centres undefined) | > 100 µM | > 100 µM | > 100 µM | 35.9 µM | > 100 µM | 84.5 µM | > 100 µM | > 100 µM | > 100 µM | – | – | – | – | – | – | – | – | – | –
8 | CCOC(=O)c1c(NC(=S)NCc2ccccc2)sc2c1CCN(C)C2 | > 100 µM | > 100 µM | > 100 µM | – | > 100 µM | > 100 µM | > 100 µM | > 100 µM | – | – | – | – | – | – | – | – | – | – | –
9 | CN1CCN(c2ccc3nc(-c4ccc(OCCCN5C(=O)c6cccc7cccc(c67)C5=O)cc4)[nH]c3c2)CC1 | – | 3.38 µM | 69.6 µM | – | > 100 µM | 62.4 µM | 62.4 µM | – | 37.5 µM | – | 1.89 µM | 31 µM | 4.53 µM | 25.2 µM | 16.3 µM | 10.8 µM | – | – | –
10 | COC(=O)C1Cc2c([nH]c3ccccc23)-c2[nH]c3ccccc3c2CC(NC(C)=O)C(=O)NCC(=O)N1 (centres undefined) | – | > 100 µM | > 100 µM | > 100 µM | > 100 µM | > 100 µM | > 100 µM | > 100 µM | > 100 µM | > 100 µM | – | – | – | – | – | – | – | – | –
11 | COc1ccc(N=NN2CCCC2)cc1 | > 100 µM | > 100 µM | > 100 µM | 37.2 µM | 35.5 µM | > 100 µM | > 100 µM | 14.7 µM | > 100 µM | – | – | – | – | – | – | – | – | – | –
12 | COc1cc(-c2ccc(-c3ccc(C(=N)N)s3)s2)cc(OC)c1OC | – | 3.25 µM | – | – | – | – | – | – | 18.8 µM | 2.93 µM | 1.47 µM | – | – | – | – | 5.15 µM | 1.5 µM | – | –
13 | CC(=O)c1nc2ccccc2n1CC(=O)c1ccc([N+](=O)[O-])cc1 | > 100 µM | – | 74.2 µM | 23.2 µM | > 100 µM | – | 37.6 µM | 47.3 µM | > 100 µM | > 100 µM | – | – | – | – | – | – | – | – | –
14 | N#CC(C(=O)c1ccccc1F)c1nc2cc(C(F)(F)F)ccc2s1 (centres undefined) | – | 89.6 µM | – | 36.7 µM | 49.5 µM | – | – | > 100 µM | > 100 µM | > 100 µM | – | – | – | – | – | – | – | – | –
15 | CCOC(=O)c1c(OCC)[nH]c(=O)c(C(c2ccc(F)cc2)c2c(O)c(C(=O)OCC)c(OCC)[nH]c2=O)c1O | 63.3 µM | > 100 µM | 42.2 µM | 33.1 µM | 79.8 µM | 37 µM | 29.3 µM | 37.7 µM | – | – | – | – | – | – | – | – | – | – | –
16 | CC1(C)COC(c2cccc(C3=NC(C)(C)CO3)c2)=N1 | > 100 µM | > 100 µM | > 100 µM | > 100 µM | > 100 µM | > 100 µM | > 100 µM | > 100 µM | – | – | – | – | – | – | – | – | – | – | –
17 | COc1cc2c(cc1-c1c(C)noc1C)ncc1nc(C3CCCCC3)n(C3CCC(OC(F)F)CC3)c12 (centres undefined) | – | > 100 µM | – | – | – | – | > 100 µM | > 100 µM | – | > 100 µM | 3 µM | – | – | – | 2.89 µM | – | 0.511 µM | 3.43 µM | –
18 | COc1ccc(NS(=O)C2CCCCC2)cc1 (centres undefined) | > 100 µM | > 100 µM | > 100 µM | > 100 µM | > 100 µM | – | > 100 µM | > 100 µM | – | > 100 µM | – | – | – | – | – | – | – | – | –
19 | CC(=O)OCc1ccc(-c2nc(C#N)c(N)o2)o1 | > 10 µM | – | > 10 µM | > 10 µM | > 10 µM | – | > 10 µM | > 10 µM | > 10 µM | > 10 µM | – | – | – | – | – | – | – | – | –
20 | COC(=O)c1ccc(/C=C/C2=CC(=O)C=CC2=O)cc1 | > 67.2 µM | 46 µM | > 43 µM | 23.2 µM | > 52.5 µM | > 62.1 µM | > 100 µM | 31.6 µM | – | 99.4 µM | – | – | – | – | – | – | – | – | –
21 | CC(C)(C)CC(C)(C)Cc1ccc(OCCOCC[N+](C)(C)Cc2ccccc2)cc1 | 2.88 µM | 15.8 µM | – | – | – | – | 19.7 µM | – | 12.4 µM | 3.47 µM | 3.86 µM | – | – | – | 5.06 µM | 2.71 µM | 1.63 µM | – | 1.42 µM
22 | CC1CCN(c2nnc(Cl)cc2C(=O)c2ccccc2)CC1 | 95.5 µM | > 100 µM | 92.7 µM | > 100 µM | 46.9 µM | 40.8 µM | > 100 µM | 52.6 µM | – | 70 µM | – | – | – | – | – | – | – | – | –
23 | Cn1c2ccccc2n2c(=O)c(-c3ccc(O)cc3)nnc12 | > 100 µM | > 100 µM | > 100 µM | > 100 µM | > 100 µM | > 100 µM | > 100 µM | > 100 µM | – | 75 µM | – | – | – | – | – | – | – | – | –

Source: PubChem BioAssay (NCI)
